{"source": "patent US8329717B2", "about": "“Pyrimidine derivatives and their use for controlling undesired plant growth” (Bayer Cropscience AG, priority 2008, dated 2012)"}
{"assay": "logp (HCOOH), chemicophysical data", "conditions": "HCOOH"}
{"smiles": "Nc1nc(N[C@@H]2CCc3ccccc32)ncc1C(F)(F)F", "note": "[Example 1.237]", "logp (HCOOH)": "wax-like; logp (HCOOH): 1.50; 1H-NMR (CDCl3, 400 MHZ, δ in ppm): 1.80 (m, 1H, 1H"}
{"smiles": "CCC(O)C#Cc1cnc(N[C@H]2c3cc(C)ccc3C[C@@H]2C)nc1N", "note": "(some centres unmarked) [Example 1.251]", "logp (HCOOH)": "wax-like; logp (HCOOH): 1.48; 1H-NMR (CDCl3, 400 MHZ, δ in ppm): 1.00 (t, 3H, CH3);"}
{"smiles": "Cc1ccc2c(c1)[C@H](Nc1nccc(N)n1)[C@@H](C)C2", "note": "[Example 1.38]", "logp (HCOOH)": "wax-like; logp (HCOOH): 1.25; 1H-NMR (CDCl3, 400 MHZ, δ in ppm): 1.25 (m, 3H, CH3);"}
{"smiles": "Cc1ccc2c(c1)[C@H](Nc1nc(C)cc(N)n1)[C@@H](C)C2", "note": "[Example 1.41]", "logp (HCOOH)": "wax-like; logp (HCOOH): 1.12; 1H-NMR (DMSO, 400 MHZ, δ in ppm): 1.15 (d, 3H, CH3);"}
{"smiles": "CC1(c2nc(N[C@@H]3CCCc4ccccc43)nc(N)c2C#N)CC1", "note": "[Example 1.84]", "logp (HCOOH)": "wax-like; logp (HCOOH): 2.63; 1H-NMR (CDCl3, 400 MHZ, δ in ppm): 0.75 (m, 2H, CH2);"}
{"smiles": "N#Cc1c(N)nc(N[C@@H]2CCCc3ccccc32)nc1C1(c2ccc(Cl)cc2Cl)CC1", "note": "[Example 1.86]", "logp (HCOOH)": "wax-like; logp (HCOOH): 5.15; 1H-NMR (CDCl3, 400 MHZ, δ in ppm): 1.25 (br, 2H,"}
{"smiles": "CCc1ccc2c(c1)C(Nc1ncc(C(F)(F)F)c(N)n1)CCO2", "note": "(racemic) [Example 1.238]", "logp (HCOOH)": "wax-like; logp (HCOOH): 2.02; 1H-NMR (CDCl3, 400 MHZ, δ in ppm): 1.15 (t, 3H, CH3);"}
{"smiles": "Cc1cccc2c1CCC2Nc1ncc(C(F)(F)F)c(N)n1", "note": "(racemic) [Example 1.254]", "logp (HCOOH)": "wax-like; logp (HCOOH): 1.75; 1H-NMR (CDCl3, 400 MHZ, δ in ppm): 2.10 (s, 3H,"}
{"smiles": "Cc1ccc2c(c1)[C@H](Nc1nc(N)cc(C(F)(F)F)n1)[C@@H](C)C2", "note": "[Example 1.214]", "logp (HCOOH)": "wax-like; logp (HCOOH): 1.59; 1H-NMR (CDCl3, 400 MHZ, δ in ppm): 1.30 (d, 3H, CH3);"}
{"smiles": "Cc1ccc2c(c1)[C@H](Nc1nc(N)cc(-c3ccccc3)n1)[C@@H](C)C2", "note": "[Example 1.83]", "logp (HCOOH)": "wax-like; logp (HCOOH): 1.71; 1H-NMR (CDCl3, 400 MHZ, δ in ppm): 1.25 (m, 3H, CH3);"}
{"smiles": "Cc1ccc2c(c1)[C@H](Nc1ncc(C#Cc3cccc(C(F)(F)F)c3)c(N)n1)[C@@H](C)C2", "note": "[Example 1.247]", "logp (HCOOH)": "wax-like; logp (HCOOH): 2.60; 1H-NMR (CDCl3, 400 MHZ, δ in ppm): 1.25 (d, 3H, CH3);"}
{"smiles": "Cc1nc(N[C@@H]2CCCc3ccccc32)nc(N)c1C(=O)OC1CCCCC1", "note": "[Example 1.255]", "logp (HCOOH)": "wax-like; logp (HCOOH): 2.03; 1H-NMR (CDCl3, 400 MHZ, δ in ppm): 2.10-2.65 (m,"}
{"smiles": "Cc1nc(NC2CCc3cc(Cl)ccc32)nc(N)c1C#N", "note": "(racemic) [Example 1.217]", "logp (HCOOH)": "wax-like; logp (HCOOH): 2.21; 1H-NMR (CDCl3, 400 MHZ, δ in ppm): 1.80 (m, 1H, 1H"}
{"smiles": "CC1(C)CC(Nc2ncc(C(F)(F)F)c(N)n2)c2cc(F)c(Cl)cc2O1", "note": "(racemic) [Example 1.241]", "logp (HCOOH)": "wax-like; logp (HCOOH): 2.83; 1H-NMR (CDCl3, 400 MHZ, δ in ppm): 1.30 (s, 3H, CH3);"}
{"smiles": "Cc1cc(C)c2c(c1)C(Nc1ncc(C#N)c(N)n1)CCC2", "note": "(racemic) [Example 1.271]", "logp (HCOOH)": "wax-like; logp (HCOOH): 2.60; 1H-NMR (CDCl3, 400 MHZ, δ in ppm): 1.85 (m, 3H, 3H"}
{"smiles": "N#Cc1cnc(NC2CCc3cc(Cl)ccc32)nc1N", "note": "(racemic) [Example 1.216]", "logp (HCOOH)": "wax-like; logp (HCOOH): 2.18; 1H-NMR (CDCl3, 400 MHZ, δ in ppm): 1.80 (m, 1H, 1H"}
{"smiles": "CC(=O)OCC#Cc1cnc(N[C@H]2c3cc(C)ccc3C[C@@H]2C)nc1N", "note": "[Example 1.252]", "logp (HCOOH)": "wax-like; logp (HCOOH): 1.59; 1H-NMR (CDCl3, 400 MHZ, δ in ppm): 1.25 (d, 3H, CH3);"}
{"smiles": "CC(C)c1nc(N[C@@H]2CCCc3ccccc32)nc(N)c1C#N", "note": "[Example 1.66]", "logp (HCOOH)": "wax-like; logp (HCOOH): 3.34; 1H-NMR (CDCl3, 400 MHZ, δ in ppm): 1.25 (m, 6H,"}
{"smiles": "COC(=O)c1cc(N)nc(NC2CCCc3ccccc32)n1", "note": "(racemic) [Example 1.212]", "logp (HCOOH)": "wax-like; logp (HCOOH): 2.54; 1H-NMR (CDCl3, 400 MHZ, δ in ppm): 1.80-2.10 (m,"}
{"smiles": "N#Cc1c(N)nc(NC2CCCc3ccccc32)nc1C(F)(F)F", "note": "(racemic) [Example 1.29]", "logp (HCOOH)": "solid; m.p.: 205.8° C.; logp (HCOOH): 3.43; 1H-NMR (CDCl3, 400 MHZ, δ in ppm): 1.85"}
